Marks after values point to notes of the source that are not given here.
Assays:
[1] = test system: lactic acid producing bacteria (LAB); assay: Enumeration of lactic acid producing bacteria on hay (Example 1)
Experimental: (§1) Two trial bales were made to determine time to complete application of the additive on one bale, weight of the bale as well as a more accurate measure of moisture content of the baled material. Bale moisture was determined using a hay probe. […] The application rate of P. anomala was 10^11 CFU in 1 L per ton of hay. The enzyme having a chitinase activity was applied at a rate of 1.5 g (suspended in 1 L of water) per ton of hay, corresponding to about 6 U per ton of hay. […] The negative control was water, and was applied at a rate of 1 L per ton of hay. […] Five replicate bales were made for each treatment. Samples of the P. anomala were taken after each application to verify the viability and numbers of the organism. […]
(§2) Chemical and microbiological analyses were conducted on hay samples collected from six different sections of the field and on composite core samples obtained from four different locations on each bale on day 1, 90, and 180 of storage. […] Dry matter (DM), organic matter (OM) and crude protein (CP) were determined according to AOAC (1990) procedures, and neutral detergent fibre (NDF), acid detergent fibre (ADF), and acid detergent insoluble nitrogen (ADIN) as described by Van Soest et al., (1991. Methods for dietary fiber, neutral detergent and non-starch polysaccharides in relation to animal nutrition. J. Dairy Sci. 74: 3583-3597.).

[2] = In situ DM disappearance of hay in the rumen (Example 1); format: in vivo, Jersey cows; settings: fitted equation, day 180 hay
Experimental: (§3) In situ rate and extent of DM and NDF disappearance of the day 180 hay samples were determined in three cows fitted with ruminal cannulas and fed a standard feedlot backgrounding diet consisting of 50% timothy hay plus 50% barley silage (DM basis). Subsamples of the day 180 core samples obtained from bales treated with the same preservative were composited and ground to pass through a 4 mm screen. Approximately 4 g of each composite sample was weighed into Dacron bags and incubated in triplicate in each cow for 0, 2, 6, 12, 24, 48, 72, 96, and 120 h. Bags were made of monofilament polyester mesh (53 μm pore size, 5 cm×20 cm, Ankom, Fairport, New York). Cows were given two weeks to adapt to their diets before starting incubations. Immediately after incubation, bags were rinsed under cold tap water until all the rumen contents on the outside of the bags had been removed. Bags were washed in a domestic washing machine in cold water for three minutes using the delicate washing cycle without detergent and spin cycle. The washing procedure was repeated once. […] The residues from triplicate bags of the same treatment incubated in the same cow were pooled and ground to pass through a 1 mm screen before being analyzed for NDF as per the method stated above. Percentage disappearance of DM and NDF were calculated from the proportion remaining in the bags after each incubation time. […]

yeasts [3] = assay: Enumeration of yeasts on hay (Example 1)
Experimental: as §1, §2

total bacteria = assay: Microbial counts on alfalfa hay: total bacteria (Example 2)
Text: (§4) The application rate of the combination of P. anomala in combination with the enzyme having a chitinase activity was respectively 10^11 CFU and 1.5 g in 1 L of water per ton of hay. Accordingly, the application rate of the combination of P. pentosaceus in combination with the enzyme having a chitinase activity 10^11 CFU and 1.5 g in 1 L of water per ton of hay. […] The negative control was water, and was applied at a rate of 1 L per ton of hay. Five large round bales of about 800 kg were made in accordance with Example 1 for each treatment on the same day. Core samples from bales across all treatments were collected at day 0, 90 and 180 after baling to analyze their nutritional value, fermentation product and microbial changes.
(§5) Core samples collected on day 0 and 90, 180 after baling were subjected to microbiological and chemical analysis. Microbiological analysis was conducted to enumerate, isolate and characterize the microorganisms (total bacteria, yeasts and moulds) on appropriate plates through serial dilution.

yeasts [4] = assay: Microbial counts on alfalfa hay: yeast (Example 2)
Text: as §4, §5

[5] = Temperature stability of alfalfa hay bales (Example 2, FIG. 2, FIG. 3)
Text: as §4
Temperature of individual bales was monitored by continuously measuring the interior temperature throughout the storage period with three (3) Dallas Thermochron iButtons (Embedded Data Systems, Lawrenceburg, KY) inserted in the interior of each bale immediately after harvest (illustrated in pictures). The temperature was recorded at 4 hours intervals for 10 weeks.

[6] = test system: total bacteria (non-fastidious bacteria growing on nutrient agar); assay: Enumeration of total bacteria on hay (Example 1)
Experimental: as §1, §2

moulds = assay: Microbial counts on alfalfa hay: mold (Example 2)
Text: as §4, §5

[7] = In situ ruminal digestion parameters of alfalfa hay (Example 2); format: in vivo, cows; settings: hay 180 days after baling
Experimental: Core samples were collected on day 180 and evaluated for nutritional quality using in situ and in vitro methods.
In situ experiments were conducted to assess the effect of hay preservatives on the rate and extent of digestion of hay samples collected 180 days after baling. Three cows fitted with ruminal cannulas and fed a standard feedlot backgrounding diet were used. Approximately 4 g of each composite sample from each bale (replicate) per treatment was weighed into Dacron bags and incubated in triplicate in each cow for 0, 2, 6, 12, 24, 48, 72, 96, and 120 h. Bags were retrieved after incubation and processed according to LRC SOP to determine in situ ruminal DM and NDF disappearance.

[8] = In vitro digestibility and gas production of alfalfa hay in mixed rumen fluid (Example 2); parameters: species or system cows; settings: 180 day hay
Experimental: In vitro experiment was also conducted to assess the effect of microbial inoculants on gas production and kinetics from 180 day hay samples. Two runs by mixed rumen fluid from three cows fitted with ruminal cannulas and fed a standard feedlot backgrounding diet were conducted. Approximately 0.5 g of each composite sample of 180d hay per treatment was weighed into vial and incubated in triplicate in each run and gas were measured for 3, 6, 9, 12, 24 and 48 h. Vials were retrieved after incubation and processed according to LRC SOP to determine in vitro ruminal DM disappearance, gas production, ammonia and VFA.

molds = assay: Enumeration of molds on hay (Example 1)
Experimental: as §1, §2

[9] = In situ NDF disappearance of hay in the rumen (Example 1); format: in vivo, Jersey cows; settings: fitted equation; day 180 hay
Experimental: as §3

[10] = Quality evaluation of hay (color, odor, grade) after 180 days (Example 1); parameters: key to GRADE (overall evaluation by examiner): VP: very poor; P: poor; A: average; G: good; VG: very good
Text: All bales were opened on day 180 and their quality assessed based on the Maryland Cooperative Extension Fact Sheet #644.
Temperature stability of the bales was monitored by continuously measuring the interior temperature of each bale with three Dallas Thermochron iButtons (Embedded Data Systems, Lawrenceburg, KY) that were inserted in the core holes the following morning after baling. The iButtons were configured to record temperatures every hour during the first 60 days of the storage period. […] Bales were opened and visually scored for extent of spoilage and mold at the end of the storage period (180 d) based on the Maryland Cooperative Extension Fact Sheet #644 ‘Evaluating Hay Quality’ (http://www.extension.umd.edu/publications/pdfs/fs644. pdf).

[11] = hay 90 days after treatment at baling
[12] = hay 180 day post treatment at baling
[13] = day 0, unit printed only at total bacteria (log cfu/g DM)
[14] = mean of bales, stored for 180 days

SMILES: CCC(=O)O [BPA, Propionic Acid]
- LAB (bacteria growing on MRS presumed to be Lactobacilli) [1, 11]: 4.88^c cfu log10
- MRS [1, 12]: 6.28 cfu log10
- DM disappearance kinetics: c (fractional rate of disappearance of fraction b) [2]: 0.083^c h^−1
- DM disappearance kinetics: c (fractional rate of disappearance of fraction b) ([2]; listed as propionic acid): 0.083 h⁻¹
- YEAST (yeasts [3]; [11]): 5.38 cfu log10
- YEAST (yeasts [3]; [12]): 4.67^b cfu log10
- Total bacteria (total bacteria; day 0): 6.34 log cfu/g DM
- Total bacteria (total bacteria; day 90): 8.49^a log cfu/g DM
- Total bacteria (total bacteria; day 180): 8.25^a log cfu/g DM
- YEAST count (yeasts [4]; [13]): 5.49
- YEAST count (yeasts [4]; day 90): 6.22
- YEAST count (yeasts [4]; day 180): 4.89
- average interior bale temperature (in words) ([5]; 60 day period post baling, FIG. 2): highest mean temperature over time
- time spent above 40° C. (in words) ([5]; storage 2012, FIG. 3): longest time above 40 °C
- TB (non-fastidious bacteria growing on nutrient agar) [6, 11]: 6.10 cfu log10
- NA [6, 12]: 7.23 cfu log10
- MOLD count (moulds; [13]): 4.66
- MOLD count (moulds; day 90): 5.91
- a = the rapidly degradable fraction [7]: 23.64^c
- b = the slowly degradable fraction [7]: 51.69^a
- c = the rate at which b is degraded [7]: 0.04^c /h
- lag = lag time [7]: 1.70^c h
- c = Fractional gas production rate fermentation rate [8]: 6.6^c mL h^−1
- lag = lag time [8]: 0.48^a h
- MOLD (molds; [11]): 4.77 cfu log10
- MOLD (molds; [12]): 6.24 cfu log10
- NDF disappearance kinetics: Lag [9]: 2.87^ab h
- NDF disappearance kinetics: c (fractional rate of disappearance of fraction b) [9]: 0.069 h⁻¹
- hay quality by visual and sensory assessment (in words) ([10]; bales opened on day 180): poorest quality
- COLOR score, Mean [10, 14]: 8.8 points
- ODOR score, Mean [10, 14]: 6.8 points
- OVERALL score, Mean [10, 14]: 15.6
- GRADE (overall evaluation by examiner) ([10]; single bales (Bale # 1-5), stored for 180 days): P and VP
